Data published in US20240140965A1, “TRICYCLIC PESTICIDAL COMPOUNDS” (priority 2021, published 2024).

What was measured:
Format in all cases: in vivo
[1] = test system: Southern Armyworm (Spodoptera eridania), 2nd instar larvae; assay: Southern armyworm (Spodoptera eridania) 2nd instar larvae mortality on sprayed lima bean plants; details: 96 h, read-out: mortality in comparison with untreated controls
Method: The active compounds were formulated by a Tecan liquid handler in 100% cyclohexanone as a 10,000 ppm solution supplied in tubes. The 10,000 ppm solution was serially diluted in 100% cyclohexanone to make interim solutions. These served as stock solutions for which final dilutions were made by the Tecan in 50% acetone:50% water (v/v) into 10 or 20 ml glass vials. A nonionic surfactant (Kinetic®) was included in the solution at a volume of 0.01% (v/v). The vials were then inserted into an automated electrostatic sprayer equipped with an atomizing nozzle for application to plants/insects. Lima bean plants (variety Sieva) were grown 2 plants to a pot and selected for treatment at the 1st true leaf stage. Test solutions were sprayed onto the foliage by an automated electrostatic plant sprayer equipped with an atomizing spray nozzle. The plants were dried in the sprayer fume hood and then removed from the sprayer. Each pot was placed into perforated plastic bags with a zip closure. Ten to 11 armyworm larvae were placed into the bag and the bags zipped closed. Test plants were maintained in a growth room at about 25° C. and about 20-40% relative humidity for 4 days, avoiding direct exposure to fluorescent light (14:10 light:dark photoperiod) to prevent trapping of heat inside the bags. Mortality and reduced feeding were assessed 4 days after treatment, compared to untreated control plants.

[2] = test system: boll weevil (Anthonomus grandis); assay: Boll weevil (Anthonomus grandis) egg and larval mortality, insect diet microtiter plate; details: 120 h, read-out: mortality in comparison with untreated controls
Method: For evaluating control of boll weevil (Anthonomus grandis) the test unit consisted of 96-well-microtiter plates containing an insect diet and 5-10 A. grandis eggs. The compounds were formulated using a solution containing 75% v/v water and 25% v/v DMSO. Different concentrations of formulated compounds were sprayed onto the insect diet at 5 μl, using a custom built micro atomizer, at two replications. After application, microtiter plates were incubated at about 25±1° C. and about 75±5% relative humidity for 5 days. Egg and larval mortality was then visually assessed.

[3] = test system: Red Spider Mite (Tetranychus kanzawai); assay: Red spider mite (Tetranychus kanzawai) mortality on sprayed cowpea beans; details: 72 h, read-out: mortality in comparison with untreated controls
Method: The active compound is dissolved at the desired concentration in a mixture of 1:1 (vol:vol) distilled water:acetone. Add surfactant (Kinetic) is added at a rate of 0.01% (vol/vol). The test solution is prepared at the day of use. Potted cowpea beans of 4-5 days of age are cleaned with tap water and sprayed with 1-2 ml of the test solution using air driven DeVilbiss® hand atomizer at 20-30 psi (≈1.38 to 2.07 bar). The treated plants are allowed to air dry and afterwards inoculated with 30 or more mites by clipping a cassava leaf section from rearing population. Treated plants are placed inside a holding room at about 25-26° C. and about 65-70% relative humidity. Estimate percent mortality is assessed 72 hours after treatment.

[4] = test system: tobacco budworm (Heliothis virescens); assay: Tobacco budworm (Heliothis virescens) egg and larval mortality, insect diet microtiter plate; details: 120 h, read-out: mortality in comparison with untreated controls
Method: For evaluating control of tobacco budworm (Heliothis virescens) the test unit consisted of 96-well-microtiter plates containing an insect diet and 15-25 H. virescens eggs.
The compounds were formulated using a solution containing 75% v/v water and 25% v/v DMSO. Different concentrations of formulated compounds were sprayed onto the insect diet at 10 μl, using a custom built micro atomizer, at two replications. After application, microtiter plates were incubated at about 28±1° C. and about 80±5% relative humidity for 5 days. Egg and larval mortality was then visually assessed.

[5] = test system: Green Peach Aphid (Myzus persicae); assay: Green peach aphid (Myzus persicae) mortality on sprayed bell pepper plants; details: 120 h, read-out: mortality in comparison with untreated controls
Method: The active compounds were formulated by a Tecan liquid handler in 100% cyclohexanone as a 10,000 ppm solution supplied in tubes. The 10,000 ppm solution was serially diluted in 100% cyclohexanone to make interim solutions. These served as stock solutions for which final dilutions were made by the Tecan in 50% acetone:50% water (v/v) into 10or 20 ml glass vials. A nonionic surfactant (Kinetic®) was included in the solution at a volume of 0.01% (v/v). The vials were then inserted into an automated electrostatic sprayer equipped with an atomizing nozzle for application to plants/insects. Bell pepper plants at the first true-leaf stage were infested prior to treatment by placing heavily infested leaves from the main colony on top of the treatment plants. Aphids were allowed to transfer overnight to accomplish an infestation of 30-50 aphids per plant and the host leaves were removed. The infested plants were then sprayed by an automated electrostatic plant sprayer equipped with an atomizing spray nozzle. The plants were dried in the sprayer fume hood, removed, and then maintained in a growth room under fluorescent lighting in a 14:10 light:dark photoperiod at about 25° C. and about 20-40% relative humidity. Aphid mortality on the treated plants, relative to mortality on untreated control plants, was determined after 5 days.

[6] = test system: yellow fever mosquito (Aedes aegypti); assay: whole plant or invertebrate; details: 48 h, larval mortality after 2 days, read-out: mortality in comparison with untreated controls
Method: For evaluating control of yellow fever mosquito (Aedes aegypti) the test unit consisted of 96-well-microtiter plates containing 200 μl of tap water per well and 5-15 freshly hatched A. aegypti larvae. The active compounds were formulated using a solution containing 75% (v/v) water and 25% (v/v) DMSO. Different concentrations of formulated compounds or mixtures were sprayed onto the insect diet at 2.5 μl, using a custom built micro atomizer, at two replications. After application, microtiter plates were incubated at 28+1° C., 80+5% RH for 2 days. Larval mortality was then visually assessed.

CCS(=O)(=O)c1cc(-c2ccc(F)cc2)cnc1-c1cn2c(n1)OCc1c-2cccc1C(F)(F)F [Compound I.3, 2-[3-ethylsulfonyl-5-(4-fluorophenyl)-2-pyridyl]-6-(trifluoromethyl)-5H-imidazo[1,2-a][3,1]benzoxazine]
> 70%: mortality at 1 ppm [1] | mortality at 10 ppm [2] | mortality at 800 ppm [3] | mortality at 30 ppm [4] | mortality at 90 ppm [5] | mortality at 80 ppm [6]

CCS(=O)(=O)c1cc(-c2ccc(F)cc2)cnc1-c1cn2c(n1)CSc1c-2cccc1C(F)(F)F [Compound I.2, 2-[3-ethylsulfonyl-5-(4-fluorophenyl)-2-pyridyl]-6-(trifluoromethyl)-4H-imidazo[2,1-c][1,4]benzothiazine]
> 70%: mortality at 1 ppm [1] | mortality at 10 ppm [2] | mortality at 30 ppm [4] | mortality at 90 ppm [5] | mortality at 80 ppm [6]

CCS(=O)(=O)c1cc(-c2ccc(F)cc2)cnc1-c1cn2c(n1)SCc1c-2cccc1C(F)(F)F [Compound I.1, 2-[3-ethylsulfonyl-5-(4-fluorophenyl)-2-pyridyl]-6-(trifluoromethyl)-5H-imidazo[1,2-a][3,1]benzothiazine]
> 70%: mortality at 1 ppm [1] | mortality at 10 ppm [2] | mortality at 30 ppm [4] | mortality at 80 ppm [6]

CCS(=O)(=O)c1cc(N=S(C)(C)=O)cnc1-c1cn2c(n1)COc1c-2cccc1C(F)(F)F [Compound I.5, [5-ethylsulfonyl-6-[6-(trifluoromethyl)-4H-imidazo[2,1-c][1,4]benzoxazin-2-yl]-3-pyridyl]imino-dimethyl-oxo-lambda6-sulfane]
> 70%: mortality at 250 ppm [2] | mortality at 250 ppm [5] | mortality at 250 ppm ([6]; 250 ppm)

CCS(=O)(=O)c1cc(-c2ccc(F)cc2)cnc1-c1cn2c(n1)COc1c-2cccc1C(F)(F)F [Compound I.4, 2-[3-ethylsulfonyl-5-(4-fluorophenyl)-2-pyridyl]-6-(trifluoromethyl)-4H-imidazo[2,1-c][1,4]benzoxazine]
> 70%: mortality at 1 ppm [1] | mortality at 10 ppm [2] | mortality at 30 ppm [4] | mortality at 80 ppm [6]
